This passage reports IC50 and Ki results from patent publication US20230159510A1, “NOVEL PRMT5 INHIBITORS” (AMGEN INC., priority 2020, published 2023).

pIC50: −log10 of the molar value. Like-named read-outs stand apart in the source and are kept apart here.

One assay concerns HCT116 MTAP null cells. The assay is described as follows: HCT116 proliferation assay, MTAP null cells (CellTiter-Glo, 6 days). The class given is cell-based. The settings on record: read-out: Protif_ HCT116-MTAP null IC50. The procedure, abridged:
(§1)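 Cells were plated in RPMI 1640 with 10% fetal bovine serum and left overnight at 37° C and 5% CO2. Compound was then added as an 8- or 9-point 1:3 dilution series from a top concentration of 1 or 10 µM, alongside a DMSO-only control. Viability was read by luminescence.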
For orientation: Cellular ATP, detected with luciferase, serves as a proxy for viable cell number.

Another assay deals with PRMT5/MEP50 (Homo sapiens, UniProt O14744). The assay is described as follows: MTase-Glo methyl transferase assay, Method B (FL-Histone H2A, 1 µM MTA, 1 h pre-incubation). Format: biochemical. Details: purchased Reaction Biology Corp RD-11-292. The settings on record: read-out: PRMT5 MTase Glo Ki (nM, Meth. B). As for the experimental part:
Method B: The PRMT5 inhibitory activity of test compounds was determined using the MTase-Glo™ assay (Promega), which monitors the product (S-adenosyl homocysteine or SAH) of methyltransferase reactions. The PRMT5 MTase-Glo assay was conducted in a 384-well white ProxiPlate (PerkinElmer) in a total volume of 16 µL. The PRMT5 enzymatic reaction (in 8 µL) contained 4 nM PRMT5/MEP50 (Reaction Biology Corp, catalog no.: RD-11-292), 5 µM S-adenosyl methionine (SAM, Promega), 2.5 µM FL-Histone H2A (BPS Bioscience, catalog no.: 52021), 1 µM 5′-methylthioadenosine (MTA, Sigma) and ½ log serially diluted compounds in a reaction buffer of 50 mM Tris (pH 8.0), 50 mM NaCl, 0.01% Tween 20, 0.01% BSA, and 1 mM TCEP. Test compounds were pre-incubated with PRMT5/MEP50, SAM, and MTA for 1 hour before addition of FL-Histone H2A to initiate the PRMT5 reaction. The reaction was allowed to proceed for 20 hours at room temperature and was then terminated by addition of 1 µL of 9X MTase-Glo™ Reagent (Promega). After a 30-minute incubation at room temperature, 8 µL of MTase-Glo™ Detection Solution (Promega) was added and the plate was incubated at room temperature for an additional 30 minutes. The light signal corresponding to the amount of SAH produced by the PRMT5 reaction was subsequently measured using an Envision multimode reader (PerkinElmer). IC50 and KI values were obtained by analyzing dose-response curves using GraphPad Prism®.

In another assay the test system is HCT116 WT cells. The assay is described as follows: HCT116 proliferation assay, WT cells (CellTiter-Glo, 6 days). The class given is cell-based. The settings on record: Homo sapiens, HCT-116, 144 h, read-out: Prolif_HCT116-WT IC50. The procedure, abridged: as §1

PRMT5/MEP50, sequence (O14744 2-637 limits assumed): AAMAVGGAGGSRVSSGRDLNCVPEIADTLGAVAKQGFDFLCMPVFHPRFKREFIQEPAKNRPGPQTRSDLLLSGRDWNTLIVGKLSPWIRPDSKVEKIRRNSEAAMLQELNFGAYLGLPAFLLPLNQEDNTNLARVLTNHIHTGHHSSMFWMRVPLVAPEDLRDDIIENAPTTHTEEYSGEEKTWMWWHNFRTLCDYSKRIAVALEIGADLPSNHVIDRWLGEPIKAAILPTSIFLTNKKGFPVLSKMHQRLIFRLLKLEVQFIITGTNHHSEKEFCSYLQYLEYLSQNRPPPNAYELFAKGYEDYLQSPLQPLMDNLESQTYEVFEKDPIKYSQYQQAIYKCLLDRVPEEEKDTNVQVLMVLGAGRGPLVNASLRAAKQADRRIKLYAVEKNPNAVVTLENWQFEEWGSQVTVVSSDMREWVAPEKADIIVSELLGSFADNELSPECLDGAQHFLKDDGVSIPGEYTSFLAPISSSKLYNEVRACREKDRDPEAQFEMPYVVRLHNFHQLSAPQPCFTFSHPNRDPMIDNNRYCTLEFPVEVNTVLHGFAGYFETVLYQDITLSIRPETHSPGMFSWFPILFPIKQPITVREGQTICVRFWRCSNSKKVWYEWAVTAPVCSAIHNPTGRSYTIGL
PRMT5/MEP50, sequence (Q9BQA1 2-342 partner limits assumed): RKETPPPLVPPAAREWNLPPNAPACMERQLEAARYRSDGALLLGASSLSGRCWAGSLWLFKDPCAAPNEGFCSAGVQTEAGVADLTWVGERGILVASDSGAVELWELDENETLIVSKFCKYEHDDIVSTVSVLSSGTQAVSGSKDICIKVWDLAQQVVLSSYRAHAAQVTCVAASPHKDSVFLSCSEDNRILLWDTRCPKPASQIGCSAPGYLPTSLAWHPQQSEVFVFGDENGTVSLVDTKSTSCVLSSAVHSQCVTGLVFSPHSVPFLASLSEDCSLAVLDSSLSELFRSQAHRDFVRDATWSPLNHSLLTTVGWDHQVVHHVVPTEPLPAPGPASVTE

`Cc1cc2cc(C(=O)N(Cc3ccc(C(F)(F)F)cn3)[C@@H]3CCc4ccccc43)ccc2nc1N` [Example 601, 2-amino-N-[(1R)-indan-1-yl]-3-methyl-N-[[5-(trifluoromethyl)-2-pyridyl]methyl] quinoline-6-carboxamide]: the pIC50 in the assay with HCT116 MTAP null cells (HCT116-MTAP null, 144 h) is 7.42; in the assay on HCT116 WT cells, 6.09. Further, the Ki at PRMT5/MEP50 came to 1.78 nM.

Regarding `Cc1cc2cc(C(=O)N(Cc3ccc(C(F)(F)F)cn3)CC3(C#N)CC3)ccc2nc1N` [Example 577, 2-amino-N-((1-cyanocyclopropyl)methyl)-3-methyl-N-((5-(trifluoromethyl)pyridin-2-yl)methyl)quinoline-6-carboxamide], the pIC50 in the assay with HCT116 MTAP null cells (HCT116-MTAP null, 144 h) was 6.80; with HCT116 WT cells, 5.18. For the same compound, at PRMT5/MEP50, the Ki stood at 3.89 nM.

As for `Cc1cc2cc(C(=O)N(Cc3ccc(N)nc3)Cc3ccc(C(F)(F)F)cn3)ccc2nc1N` [Example 568, 2-amino-N-[(6-amino-3-pyridyl)methyl]-3-methyl-N-[[5-(trifluoromethyl)-2-pyridyl]methyl] quinoline-6-carboxamide], the pIC50 in the assay with HCT116 MTAP null cells (HCT116-MTAP null, 144 h) was 6.89; in the assay with HCT116 WT cells, 5.26. Further, at PRMT5/MEP50, the Ki lay in the range of 2 to 3 nM.

For the compound `C#CCCN(Cc1ccc(C(F)(F)F)cn1)C(=O)c1ccc2nc(N)c(C)cc2c1` [Example 659, 2-amino-N-but-3-ynyl-3-methyl-N-[[5-(trifluoromethyl)-2-pyridyl]methyl] quinoline-6-carboxamide], in the assay on HCT116 MTAP null cells (HCT116-MTAP null, 144 h), the pIC50 is 6.60. The Ki at PRMT5/MEP50 was 4.33 nM.

In the case of `Cc1cc2cc(C(=O)N(Cc3ccc(C(F)(F)F)cn3)C3CCC4CCCC4C3)ccc2nc1N` (stereo not shown) [Example 669, N-(2,3,3a,4,5,6,7,7a-octahydro-1H-inden-5-yl)-2-amino-3-methyl-N-[[5-(trifluoromethyl)-2-pyridyl]methyl] quinoline-6-carboxamide], the pIC50 in the assay with HCT116 MTAP null cells (HCT116-MTAP null, 144 h) was 6.09. The Ki at PRMT5/MEP50 was found to be 8.5 nM.

On to `Cc1cc2cc(C(=O)N(Cc3ccc(C(F)(F)F)cn3)Cc3ccccc3-n3cccn3)ccc2nc1N` [Example 654, 2-amino-3-methyl-N-[(2-pyrazol-1-ylphenyl)methyl]-N-[[5-(trifluoromethyl)-2-pyridyl]methyl] quinoline-6-carboxamide], for which the pIC50 in the assay with HCT116 MTAP null cells (HCT116-MTAP null, 144 h) was 6.60. In addition, at PRMT5/MEP50, the Ki turned out to be 5.61 nM.

Turning to `Cc1cc2cc(C(=O)N(Cc3ccc(C(F)(F)F)cc3)Cc3c(F)cncc3F)ccc2nc1N` [Example 685, 2-amino-N-[(3,5-difluoro-4-pyridyl)methyl]-3-methyl-N-[[4-(trifluoromethyl)phenyl]methyl] quino line-6-carboxamide], in the assay with HCT116 MTAP null cells, the pIC50 was 7.29. For the same compound, the Ki on PRMT5/MEP50 was 1.22 nM.

With `Cc1cc2cc(C(=O)N(Cc3ccc(O)cc3)Cc3ccnc4[nH]ccc34)ccc2nc1N` [Example 688, 2-amino-N-[(4-hydroxyphenyl)methyl]-3-methyl-N-(1H-pyrrolo[2,3-b]pyridin-4-ylmethyl)quinoline-6-carboxamide], the pIC50 in the assay with HCT116 MTAP null cells (HCT116-MTAP null, 144 h) is 6.62. Moreover, the Ki on PRMT5/MEP50 turned out to be 1.41 nM.

Consider `Cc1cc2cc(C(=O)N(Cc3cccc(-n4cncn4)c3)Cc3ccc(C(F)(F)F)cn3)ccc2nc1N` [Example 649, 2-amino-3-methyl-N-[[3-(1,2,4-triazol-1-yl)phenyl]methyl]-N-[[5-(trifluoromethyl)-2-pyridyl]methyl] quinoline-6-carboxamide], for which the pIC50 in the assay on HCT116 MTAP null cells (HCT116-MTAP null, 144 h) was 6.51. Also, the Ki at PRMT5/MEP50 was determined as 2.69 nM.

As for `Cc1cc2cc(C(=O)N(Cc3ccc(C(F)(F)F)cn3)Cc3ccnc4[nH]ccc34)cnc2nc1N` [Example 635, 7-amino-6-methyl-N-(1H-pyrrolo[2,3-b]pyridin-4-ylmethyl)-N-[[5-(trifluoromethyl)-2-pyridyl]methyl]-1,8-naphthyridine-3-carboxamide], the pIC50 with HCT116 MTAP null cells is 7.74. Further, the Ki at PRMT5/MEP50 stood at 1.29 nM.

As for `Cc1cc2cc(C(=O)N(Cc3ccc(C(F)(F)F)cn3)C3Cc4ccccc4C3O)ccc2nc1N` (stereo not shown) [Example 674, 2-amino-N-(1-hydroxyindan-2-yl)-3-methyl-N-[[5-(trifluoromethyl)-2-pyridyl]methyl] quinoline-6-carboxamide], the pIC50 in the assay on HCT116 MTAP null cells (HCT116-MTAP null, 144 h) was 6.29. The Ki at PRMT5/MEP50 was found to be 15.3 nM.

In the case of `Cc1cc2cc(C(=O)N(Cc3ccc(C(N)=O)nc3)Cc3ccc(C(F)(F)F)cn3)ccc2nc1N` [Example 637, 2-amino-N-[(6-carbamoyl-3-pyridyl)methyl]-3-methyl-N-[[5-(trifluoromethyl)-2-pyridyl]methyl] quinoline-6-carboxamide], the pIC50 in the assay with HCT116 MTAP null cells (HCT116-MTAP null, 144 h) was < 6.00. The Ki on PRMT5/MEP50 was determined as 5.2 nM.

`Cc1cc2cc(C(=O)N(Cc3ccc(N4CCCC4=O)cc3)Cc3ccc(C(F)(F)F)cn3)ccc2nc1N` [Example 645, 2-amino-3-methyl-N-[[4-(2-oxopyrrolidin-1-yl)phenyl]methyl] -N-[[5-(trifluoromethyl)-2-pyridyl]methyl] quinoline-6-carboxamide]: the pIC50 in the assay on HCT116 MTAP null cells (HCT116-MTAP null, 144 h) is < 6.00. In addition, the Ki at PRMT5/MEP50 is 5.93 nM.

In the case of `Cc1cc2cc(C(=O)N(Cc3ccc(C(F)(F)F)cn3)C3CCCc4ncccc43)ccc2nc1N` (stereo not shown) [Example 667, 2-amino-3-methyl-N-(5,6,7,8-tetrahydroquinolin-5-yl)-N-[[5-(trifluoromethyl)-2-pyridyl]methyl] quinoline-6-carboxamide], the pIC50 in the assay with HCT116 MTAP null cells (HCT116-MTAP null, 144 h) was 7.62. On PRMT5/MEP50, the Ki worked out at 3.9 nM.

Regarding `Cc1cc2cc(C(=O)N(Cc3ccc(C(F)(F)F)cn3)C3CCCC4OCCC43)ccc2nc1N` (stereo not shown) [Example 633, N-(2,3,3a,4,5,6,7,7a-octahydrobenzofuran-4-yl)-2-amino-3-methyl-N-[[5-(trifluoromethyl)-2-pyridyl]methyl] quinoline-6-carboxamide], the pIC50 in the assay with HCT116 MTAP null cells (HCT116-MTAP null, 144 h) was 6.48. Further, the Ki at PRMT5/MEP50 is 4.8 nM.

Turning to `Cc1cc2cc(C(=O)N(Cc3ccc(C(F)(F)F)cn3)C(C)C3CCCO3)ccc2nc1N` (stereo not shown) [Example 632, 2-amino-3-methyl-N-(1-tetrahydrofuran-2-ylethyl)-N-[[5-(trifluoromethyl)-2-pyridyl]methyl] quinoline-6-carboxamide], the pIC50 with HCT116 MTAP null cells (HCT116-MTAP null, 144 h) was 6.47. For the same compound, the Ki on PRMT5/MEP50 is 5.3 nM.

In the case of `Cc1cc2cc(C(=O)N(Cc3ccc(-c4cc[nH]n4)cc3)Cc3ccc(C(F)(F)F)cn3)ccc2nc1N` [Example 647, 2-amino-3-methyl-N-[[4-(IH-pyrazol-3-yl)phenyl]methyl]-N-[[5-(trifluoromethyl)-2-pyridyl]methyl] quinoline-6-carboxamide], in the assay with HCT116 MTAP null cells (HCT116-MTAP null, 144 h), the pIC50 was 6.49. Moreover, at PRMT5/MEP50, the Ki was 4.11 nM.

For `Cc1cc2cc(C(=O)N(Cc3ccc(N4CCCC4)cc3)Cc3ccc(C(F)(F)F)cn3)ccc2nc1N` [Example 646, 2-amino-3-methyl-N-[(4-pyrrolidin-1-ylphenyl)methyl]-N-[[5-(trifluoromethyl)-2-pyridyl]methyl] quinoline-6-carboxamide], in the assay on HCT116 MTAP null cells (HCT116-MTAP null, 144 h), the pIC50 was 6.07. The Ki on PRMT5/MEP50 worked out at 6.83 nM.

On to `Cc1cc2cc(C(=O)N(Cc3ccc(C(F)(F)F)cn3)C(C)c3cccc(O)c3)ccc2nc1N` (stereo not shown) [Example 663, 2-amino-N-[1-(3-hydroxyphenyl)ethyl] -3-methyl-N-[[5-(trifluoromethyl)-2-pyridyl]methyl] quinoline-6-carboxamide], for which the pIC50 in the assay on HCT116 MTAP null cells (HCT116-MTAP null, 144 h) is 7.43. Besides, at PRMT5/MEP50, the Ki is 1.7 nM.

For the compound `Cc1cc2cc(C(=O)N(Cc3ncccc3Br)CC(C)C)ccc2nc1N` [Example 640, 2-amino-N-[(3-bromo-2-pyridyl)methyl] -N-isobutyl-3-methylquinoline-6-carboxamide], the pIC50 in the assay with HCT116 MTAP null cells (HCT116-MTAP null, 144 h) was 6.14. At PRMT5/MEP50, the Ki is 14.1 nM.

For the compound `Cc1cc2cc(C(=O)N(Cc3cccc(-c4ncc[nH]4)c3)Cc3ccc(C(F)(F)F)cn3)ccc2nc1N` [Example 650, 2-amino-N-[ [3-(1 H-imidazol-2-yl)phenyl]methyl] -3-methyl-N-[ [5-(trifluoromethyl)-2-pyridyl]methyl] quinoline-6-carboxamide], the pIC50 in the assay with HCT116 MTAP null cells (HCT116-MTAP null, 144 h) was 6.43. In addition, the Ki on PRMT5/MEP50 came out at 2.21 nM.

For the compound `C#CC(C)N(Cc1ccc(C(F)(F)F)cn1)C(=O)c1ccc2nc(N)c(C)cc2c1` (stereo not shown) [Example 656, 2-amino-3-methyl-N-(1-methylprop-2-ynyl)-N-[[5-(trifluoromethyl)-2-pyridyl]methyl] quinoline-6-carboxamide], the pIC50 in the assay on HCT116 MTAP null cells (HCT116-MTAP null, 144 h) was 6.68. The Ki on PRMT5/MEP50 amounted to 5.28 nM.

As to `Cc1cc2cc(C(=O)N(Cc3cccc(-n4ccnn4)c3)Cc3ccc(C(F)(F)F)cn3)ccc2nc1N` [Example 651, 2-amino-3-methyl-N-[[3-(triazol-1-yl)phenyl]methyl] -N-[ [5-(trifluoromethyl)-2-pyridyl]methyl] quinoline-6-carboxamide], in the assay with HCT116 MTAP null cells (HCT116-MTAP null, 144 h), the pIC50 is 6.51. In addition, the Ki at PRMT5/MEP50 lay within 3 to 9 nM.

What is called pIC50 is the IC50 on a negative log10 scale, so that one unit is a factor of ten. A word on the Ki: it is the dissociation constant of the complex between target and ligand, obtained from inhibition or displacement.
